Source: patent US3983103A, “N-(Benzenesulfonyl)-erythromycylamine derivatives” (PLIVA Pharmaceutical and Chemical Works, priority 1973, dated 1976)
Converted amounts (≈) assume the structure as drawn.

Key:
Assay type in all cases: cell-based
[1] = system: Streptococcus haemolyticus 69; test: testing against a set of organisms (Table II), MIC; conditions: Streptococcus haemolyticus 69, Table II
[2] = system: Streptococcus haemolyticus 099; test: testing against a set of organisms (Table II), MIC; conditions: Streptococcus haemolyticus 099, Table II
[3] = system: Staphylococcus aureus 736; test: testing against a set of organisms (Table II), MIC; conditions: Staphylococcus aureus 736, Table II
[4] = system: Staphylococcus aureus 372; test: testing against a set of organisms (Table II), MIC; conditions: Staphylococcus aureus 372, Table II
Enterococcus 45 = test: testing against a set of organisms (Table II), MIC; conditions: Enterococcus 45, Table II
Enterococcus 242 = test: testing against a set of organisms (Table II), MIC; conditions: Enterococcus 242, Table II
Enterococcus 146 = test: testing against a set of organisms (Table II), MIC; conditions: Enterococcus 146, Table II
Enterococcus 325 = test: testing against a set of organisms (Table II), MIC; conditions: Enterococcus 325, Table II
Pseudomonas aeruginosa = test: antibacterial spectrum in vitro (Table I), MIC
Source text: (§1) The above Table I illustrates antibacterial spectrum in vitro, using some pathogene microorganisms freshly isolated from patients.

Klebsiella aerogenes = test: antibacterial spectrum in vitro (Table I), MIC
Source text: as §1

[5] = system: Streptococcus haemolyticus; test: antibacterial spectrum in vitro (Table I), MIC
Source text: as §1

[6] = system: Staphylococcus pyog. aureus; test: antibacterial spectrum in vitro (Table I), MIC
Source text: as §1

Enterococcus = test: antibacterial spectrum in vitro (Table I), MIC
Source text: as §1

Diplococcus pneumoniae = test: antibacterial spectrum in vitro (Table I), MIC
Source text: as §1

Proteus mirabilis = test: antibacterial spectrum in vitro (Table I), MIC
E. coli = test: antibacterial spectrum in vitro (Table I), MIC

Compound | MIC [3] [µg/mL] | MIC [4] [µg/mL] | MIC (Enterococcus 45) [µg/mL] | MIC (Enterococcus 242) [µg/mL] | MIC (Enterococcus 146) [µg/mL] | MIC (Enterococcus 325) [µg/mL] | MIC [1] [µg/mL] | MIC [2] [µg/mL] | MIC (Pseudomonas aeruginosa) [µg/mL] | MIC (Klebsiella aerogenes) [µg/mL] | MIC [5] [µg/mL] | MIC [6] [µg/mL] | MIC (Enterococcus) [µg/mL] | MIC (Diplococcus pneumoniae) [µg/mL] | MIC (Proteus mirabilis) [µg/mL] | MIC (E. coli) [µg/mL]
CCC1OC(=O)C(C)C(OC2CC(C)(OC)C(O)C(C)O2)C(C)C(OC2OC(C)CC(N(C)C)C2O)C(C)(O)CC(C)C(NS(=O)(=O)c2ccc(NC(C)=O)cc2)C(C)C(O)C1(C)O (stereo not drawn) [EAAc, N-(4-acetylamino-benzenesulfonyl)erythromycylamine] | 31.2 (≈ 33.5 µM) | 15.6 (≈ 16.7 µM) | 125.0 (≈ 134 µM) | 62.5 (≈ 67 µM) | 31.2 (≈ 33.5 µM) | 62.5 (≈ 67 µM) | 0.9 (≈ 0.965 µM) | 1.9 (≈ 2.04 µM) | 250.0 (≈ 268 µM) | 62.5 (≈ 67 µM) | 0.45 (≈ 0.483 µM) | 15.6 (≈ 16.7 µM) | 1.9 (≈ 2.04 µM) | 1.9 (≈ 2.04 µM) | 125 (≈ 134 µM) | –
CCC1OC(=O)C(C)C(OC2CC(C)(OC)C(O)C(C)O2)C(C)C(OC2OC(C)CC(N(C)C)C2O)C(C)(O)CC(C)C(NS(=O)(=O)c2ccc(Br)cc2)C(C)C(O)C1(C)O (stereo not drawn) [EABr, N-(4-bromo-benzenesulfonyl)erythromycylamine] | 7.8 (≈ 8.18 µM) | 3.9 (≈ 4.09 µM) | 7.8 (≈ 8.18 µM) | 3.9 (≈ 4.09 µM) | 3.9 (≈ 4.09 µM) | 3.9 (≈ 4.09 µM) | 0.9 (≈ 0.943 µM) | 0.9 (≈ 0.943 µM) | 250.0 (≈ 262 µM) | 62.5 (≈ 65.5 µM) | 0.9 (≈ 0.943 µM) | 31.2 (≈ 32.7 µM) | 1.9 (≈ 1.99 µM) | 3.9 (≈ 4.09 µM) | 250 (≈ 262 µM) | 125.0 (≈ 131 µM)
CCC1OC(=O)C(C)C(OC2CC(C)(OC)C(O)C(C)O2)C(C)C(OC2OC(C)CC(N(C)C)C2O)C(C)(O)CC(C)C(NS(=O)(=O)c2ccc(Cl)cc2)C(C)C(O)C1(C)O (stereo not drawn) [EACl, N-(4-chloro-benzenesulfonyl)erythromycylamine] | 31.2 (≈ 34.3 µM) | 3.9 (≈ 4.29 µM) | 3.9 (≈ 4.29 µM) | 3.9 (≈ 4.29 µM) | 7.8 (≈ 8.58 µM) | 7.8 (≈ 8.58 µM) | 0.9 (≈ 0.989 µM) | 0.9 (≈ 0.989 µM) | 250.0 (≈ 275 µM) | 125 (≈ 137 µM) | 0.9 (≈ 0.989 µM) | 31.2 (≈ 34.3 µM) | 3.9 (≈ 4.29 µM) | 1.9 (≈ 2.09 µM) | 250 (≈ 275 µM) | 62.5 (≈ 68.7 µM)
CC[C@H]1OC(=O)[C@H](C)[C@@H](O[C@H]2C[C@@](C)(OC)[C@@H](O)[C@H](C)O2)[C@H](C)[C@@H](O[C@@H]2O[C@H](C)C[C@H](N(C)C)[C@H]2O)[C@](C)(O)C[C@@H](C)C(=O)[C@H](C)[C@@H](O)[C@]1(C)O [E, erythromycin, reference compound] | – | – | – | – | – | – | – | – | 500 (≈ 681 µM) | 500 (≈ 681 µM) | 31.2 (≈ 42.5 µM) | 62.5 (≈ 85.2 µM) | 31.2 (≈ 42.5 µM) | 62.5 (≈ 85.2 µM) | 500 (≈ 681 µM) | 250 (≈ 341 µM)
CCC1OC(=O)C(C)C(OC2CC(C)(OC)C(O)C(C)O2)C(C)C(OC2OC(C)CC(N(C)C)C2O)C(C)(O)CC(C)C(NS(=O)(=O)c2ccc(C)cc2)C(C)C(O)C1(C)O (stereo not drawn) [EAT, N-(4-methyl-benzenesulfonyl)erythromycylamine] | 15.6 (≈ 17.5 µM) | 7.8 (≈ 8.77 µM) | 7.8 (≈ 8.77 µM) | 3.9 (≈ 4.39 µM) | 7.8 (≈ 8.77 µM) | 7.8 (≈ 8.77 µM) | 0.9 (≈ 1.01 µM) | 0.9 (≈ 1.01 µM) | 250.0 (≈ 281 µM) | 250 (≈ 281 µM) | 0.9 (≈ 1.01 µM) | 31.2 (≈ 35.1 µM) | 3.9 (≈ 4.39 µM) | 1.9 (≈ 2.14 µM) | 250 (≈ 281 µM) | 62.2 (≈ 70 µM)

Continued, in another order:

MIC [3] [µg/mL] | MIC [4] [µg/mL] | MIC (Enterococcus 45) [µg/mL] | MIC (Enterococcus 242) [µg/mL] | MIC (Enterococcus 146) [µg/mL] | MIC (Enterococcus 325) [µg/mL] | Compound | MIC [1] [µg/mL] | MIC [2] [µg/mL] | MIC (Pseudomonas aeruginosa) [µg/mL] | MIC (Klebsiella aerogenes) [µg/mL] | MIC [5] [µg/mL] | MIC [6] [µg/mL] | MIC (Enterococcus) [µg/mL] | MIC (Diplococcus pneumoniae) [µg/mL] | MIC (Proteus mirabilis) [µg/mL] | MIC (E. coli) [µg/mL]
15.6 (≈ 16.5 µM) | 15.6 (≈ 16.5 µM) | 62.5 (≈ 66.1 µM) | 31.2 (≈ 33 µM) | 7.8 (≈ 8.24 µM) | 62.5 (≈ 66.1 µM) | CCC(=O)Nc1ccc(S(=O)(=O)NC2C(C)CC(C)(O)C(OC3OC(C)CC(N(C)C)C3O)C(C)C(OC3CC(C)(OC)C(O)C(C)O3)C(C)C(=O)OC(CC)C(C)(O)C(O)C2C)cc1 (stereo not drawn) [EAPr, N-(4-propionylamino-benzenesulfonyl)erythromycylamine] | 0.9 (≈ 0.951 µM) | 0.9 (≈ 0.951 µM) | – | – | – | – | – | – | – | –
31.2 (≈ 35.1 µM) | 15.6 (≈ 17.5 µM) | 7.8 (≈ 8.77 µM) | 3.9 (≈ 4.39 µM) | 15.6 (≈ 17.5 µM) | 7.8 (≈ 8.77 µM) | CCC1OC(=O)C(C)C(OC2CC(C)(OC)C(O)C(C)O2)C(C)C(OC2OC(C)CC(N(C)C)C2O)C(C)(O)CC(C)C(NS(=O)(=O)c2ccccc2C)C(C)C(O)C1(C)O (stereo not drawn) [o-EAT, N-(2-methyl-benzenesulfonyl)erythromycylamine] | 0.9 (≈ 1.01 µM) | 1.9 (≈ 2.14 µM) | – | – | – | – | – | – | – | –
31.2 (≈ 34.9 µM) | 15.6 (≈ 17.5 µM) | 7.8 (≈ 8.73 µM) | 3.9 (≈ 4.37 µM) | 7.8 (≈ 8.73 µM) | 7.8 (≈ 8.73 µM) | CCC1OC(=O)C(C)C(OC2CC(C)(OC)C(O)C(C)O2)C(C)C(OC2OC(C)CC(N(C)C)C2O)C(C)(O)CC(C)C(NS(=O)(=O)c2ccc(F)cc2)C(C)C(O)C1(C)O (stereo not drawn) [EAF, N-(4-fluoro-benzenesulfonyl)erythromycylamine] | 3.9 (≈ 4.37 µM) | < 0.9 | – | – | – | – | – | – | – | –
31.2 (≈ 34.5 µM) | 7.8 (≈ 8.64 µM) | 7.8 (≈ 8.64 µM) | 3.9 (≈ 4.32 µM) | 7.8 (≈ 8.64 µM) | 3.9 (≈ 4.32 µM) | CCc1ccc(S(=O)(=O)NC2C(C)CC(C)(O)C(OC3OC(C)CC(N(C)C)C3O)C(C)C(OC3CC(C)(OC)C(O)C(C)O3)C(C)C(=O)OC(CC)C(C)(O)C(O)C2C)cc1 (stereo not drawn) [EAE, N-(4-ethyl-benzenesulfonyl)erythromycylamine] | 0.9 (≈ 0.996 µM) | 0.9 (≈ 0.996 µM) | – | – | – | – | – | – | – | –
15.6 (≈ 15.6 µM) | 3.9 (≈ 3.9 µM) | 7.8 (≈ 7.79 µM) | 7.8 (≈ 7.79 µM) | 3.9 (≈ 3.9 µM) | 3.9 (≈ 3.9 µM) | CCC1OC(=O)C(C)C(OC2CC(C)(OC)C(O)C(C)O2)C(C)C(OC2OC(C)CC(N(C)C)C2O)C(C)(O)CC(C)C(NS(=O)(=O)c2ccc(I)cc2)C(C)C(O)C1(C)O (stereo not drawn) [EAI, N-(4-iodo-benzenesulfonyl)erythromycylamine] | 0.9 (≈ 0.899 µM) | 0.9 (≈ 0.899 µM) | – | – | – | – | – | – | – | –
